1 molecule from patent publication US20240208950A1, “COMPOSITIONS AND METHODS FOR TREATMENT OF CERVICAL AND OVARIAN CANCER” (SOUTH DAKOTA BOARD OF REGENTS, priority 2021, published 2024) can be followed below.

For the assay, the system named is ovarian cancer cell line A2780. Put plainly: MTT cell viable assay (cytotoxicity and anti-proliferation). It counts as cell-based. The note with it: Homo sapiens. As to the method:
A biological assay was performed to study the potency of ORM-analogs by observing their pharmaceutical effects on living tissue (in vitro) and the effects of these analogs of unknown potency were compared to the effects of the standard (ormeloxifene). An MTT cell viable assay was first conducted to measure the cytotoxicity and anti-proliferation activity of synthesized analogs (Table 2 and FIG. 2).
For orientation: Tetrazolium dyes change colour on reduction, which living cells bring about.

In general, IC50 refers to the point on the concentration scale where inhibition reaches its midpoint. Turning to `COc1ccc2c(c1)OC(C)(C)C(c1ccccc1)C2c1ccc(OCCN2CCCC2)cc1` (stereo not shown) [Ormeloxifene, reference compound], the 50% inhibitory concentration (IC50) was 17.5 µM.
